Test results taken from patent US6737383B1, “Herbicidal oxadiazolidines” (priority 1999, dated 2004).

Experiments:
rape = assay: Test B pre/postemergence rape; type: in vivo, Brassica napus
How it was run: (§1)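 Test chemicals in a non-phytotoxic solvent mixture with surfactant were sprayed preemergence onto planted seeds and postemergence onto plants 2 to 18 cm tall (1- to 4-leaf stage). After twelve to sixteen days in a greenhouse, injury was visually rated against untreated controls from 0 (no effect) to 10 (complete control).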

velvetleaf = assay: Test B pre/postemergence velvetleaf; type: in vivo, Abutilon theophrasti
How it was run: as §1

wheat = assay: Test B pre/postemergence wheat; type: in vivo, Triticum aestivum
How it was run: as §1

bamyardgrass = assay: Test B flood test barnyardgrass; type: in vivo, Echinochloa crus-galli
How it was run: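 Plants were grown to the 2-leaf stage before treatment with test chemical, then held in a greenhouse for twelve to sixteen days. Injury was visually rated against untreated controls on a 0–10 scale, where 0 is no effect and 10 is complete control.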

winter wheat [1] = assay: Test E winter wheat; type: in vivo, Triticum aestivum; settings: Postemergence
How it was run: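 Visually scored herbicidal effect relative to untreated plants, taken ~21 to 28 days post-application; compound in solvent with surfactant; postemergence sprays at the 1- to 4-leaf stage.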

blackgrass = assay: Test E blackgrass; type: in vivo, Alopecurus myosuroides; settings: Preemergence
green foxtail = assay: Test E green foxtail; type: in vivo, Setaria viridis; settings: Preemergence
Italian ryegrass = assay: Test E Italian ryegrass; type: in vivo, Lolium multiflorum; settings: Preemergence
winter wheat [2] = assay: Test E winter wheat; type: in vivo, Triticum aestivum; settings: Preemergence
wild oat = assay: Test E wild oat; type: in vivo, Avena fatua; settings: Preemergence
winter barley = assay: Test E winter barley; type: in vivo, Hordeum vulgare; settings: Preemergence
[3] = Postemergence, Rate 62 g/ha, scale 0 to 10, 0 is no effect, 10 is complete control
[4] = Postemergence, Rate 250 g/ha, scale 0 to 10, 0 no effect, 10 complete control
[5] = Preemergence, Rate 62 g/ha, scale 0 to 10, 0 is no effect, 10 is complete control
[6] = Preemergence, Rate 125 g/ha, scale 0 to 10 (0 no effect, 10 complete control)
[7] = Preemergence, Rate 500 g/ha, scale 0 (no effect) to 10 (complete control)
[8] = Rate 125 g/ha, Postemergence, scale 0 to 10, 0 no effect, 10 complete control
[9] = Preemergence, Rate 250 g/ha, scale of 0 to 10 where 0 is no effect and 10 is complete control
[10] = Rate 125 g/ha, 0 to 100 scale (0 no effect, 100 complete control)
[11] = Rate 500 g/ha, 0 to 100 scale where 0 is no effect and 100 is complete control

Compound: CC(C)N(C(=O)n1oc(=O)n(-c2ccccc2)c1=O)c1ccc(F)cc1 [Compound 38]
- Rape plant response rating (rape; [3]): 0
- Rape plant response rating (rape; [4]): 0
- Plant response rating, Rape (rape; [5]): 0
- Plant response rating, Rape (rape; [6]): 0
- Rape plant response rating (rape; [7]): 0
- Rape plant response rating (rape; [8]): 0
- Rape plant response rating (rape; Rate 500 g/ha, Postemergence, 0 to 10 scale (0 no effect, 10 complete control)): 0
- Velvetleaf plant response rating (velvetleaf; [3]): 0
- Velvetleaf plant response rating (velvetleaf; [4]): 0
- Plant response rating, Velvetleaf (velvetleaf; [5]): 0
- Plant response rating, Velvetleaf (velvetleaf; [6]): 0
- Plant response rating, Velvetleaf (velvetleaf; [9]): 0
- Velvetleaf plant response rating (velvetleaf; [7]): 0
- Velvetleaf plant response rating (velvetleaf; [8]): 0
- Wheat plant response rating (wheat; [3]): 0
- Wheat plant response rating (wheat; [4]): 0
- Plant response rating, Wheat (wheat; [5]): 0
- Plant response rating, Wheat (wheat; [6]): 0
- Plant response rating, Wheat (wheat; [9]): 0
- Wheat plant response rating (wheat; [7]): 0
- Wheat plant response rating (wheat; [8]): 0
- Barnyardgrass plant response rating (bamyardgrass; [3]): 0
- Barnyardgrass plant response rating (bamyardgrass; Rate 125 g/ha, Postemergence section (flood test species), scale 0 to 10, 0 no effect, 10 complete control): 0
- Barnyardgrass plant response rating (bamyardgrass; Rate 500 g/ha, Postemergence section of Table B, 0 to 10 scale (0 no effect, 10 complete control)): 0
- Barnyardgrass plant response rating (bamyardgrass; flood test, listed under Postemergence, Rate 250 g/ha, scale 0 to 10, 0 no effect, 10 complete control): 0
- Plant response rating, Wheat (winter) (winter wheat [1]; Rate 125 g/ha, 0 to 100 scale): 10
- Plant response rating, Wheat (winter) (winter wheat [1]; Rate 250 g/ha, 0 to 100 scale (0 no effect, 100 complete control)): 10
- Plant response rating, Wheat (winter) (winter wheat [1]; Rate 500 g/ha, 0 to 100 scale, 0 no effect, 100 complete control): 10
- Plant response rating, Blackgrass (blackgrass; [10]): 25
- Plant response rating, Blackgrass (blackgrass; Rate 250 g/ha, 0 to 100 scale): 45
- Plant response rating, Blackgrass (blackgrass; [11]): 35
- Plant response rating, Green foxtail (green foxtail; [10]): 80
- Plant response rating, Green foxtail (green foxtail; Rate 250 g/ha, 0 to 100 scale): 90
- Plant response rating, Green foxtail (green foxtail; [11]): 100
- Plant response rating, I. Ryegrass (Italian ryegrass; [10]): 0
- Plant response rating, I. Ryegrass (Italian ryegrass; Rate 250 g/ha, 0 to 100 scale): 20
- Plant response rating, I. Ryegrass (Italian ryegrass; [11]): 80
- Plant response rating, Wheat (winter) (winter wheat [2]; [10]): 10
- Plant response rating, Wheat (winter) (winter wheat [2]; Rate 250 g/ha, 0 to 100 scale): 0
- Plant response rating, Wheat (winter) (winter wheat [2]; [11]): 10
- Plant response rating, Wild oat (wild oat; [10]): 0
- Plant response rating, Wild oat (wild oat; [11]): 20
- Plant response rating, Barley (winter) (winter barley; [10]): 0
- Plant response rating, Barley (winter) (winter barley; Rate 250 g/ha, 0 to 100 scale): 0
- Plant response rating, Barley (winter) (winter barley; [11]): 0
